Earlier results as cited in PubChem BioAssay AID1259409 (Chemical Carcinogenesis Research Information System (CCRIS), 2018).

Test system: rodent chemically induced tumor inhibition, incidence and multiplicity
Experiment: CCRIS tumor inhibitor studies

SMILES: O=C(c1ccc(O)cc1O)C(c1coc2cc(O)ccc2c1=O)C(c1ccc(O)cc1)c1ccc(O)cc1 (stereo unspecified)
- tumour outcome (control, treated, inhibition, significance) (Carcinogen: 7,12-DIMETHYLBENZ[A]ANTHRACENE, 57-97-6, Dose [Inhibitor]: 0, 16 NMOL 2/WK 1 HR PRIOR TO EACH PROMOTER DOSE FOR 20 WK (STUDY DURATION: 20 WK), Route [Inhibitor]: DERMAL, Species: MOUSE, Strain/Sex: ICR/FEMALE, Target Tissue: Type of Lesion: SKIN: TUMOR, Dose [Carcinogen]: 0.19 UMOL ONCE, Promoter: 12-0-TETRADECANOYLPHORBOL-13-ACETATE, 16561-29-8): 70%, 60%, 14%, not calculated

SMILES: N#CCc1c[nH]c2ccccc12
- tumour outcome (control, treated, inhibition, significance) (Carcinogen: 7,12-DIMETHYLBENZ[A]ANTHRACENE, 57-97-6, Dose [Inhibitor]: 0.03 MMOL/G DIET DAILY STARTING 8 D PRIOR TO AND CONTINUING THROUGH CARCINOGEN ADMINISTRATION FOLLOWED BY A 14 WK OBSERV, Route [Inhibitor]: ORAL, Species: RAT, Strain/Sex: SPRAGUE-DAWLEY/FEMALE, Target Tissue: Type of Lesion: MAMMARY GLAND: TUMOR, Dose [Carcinogen]: 12 MG IN 1 ML OLIVE OIL ONCE, Promoter: NONE USED): 73%, 54%, 26%, not significant
- tumour outcome (control, treated, inhibition, significance) (Carcinogen: 7,12-DIMETHYLBENZ[A]ANTHRACENE, 57-97-6, Dose [Inhibitor]: 0.1 MMOL IN 1 ML DIMETHYL SULFOXIDE ONCE 20 HR PRIOR TO CARCINOGEN ADMINISTRATION FOLLOWED BY A 14 WK OBSERVATION PERIOD, Route [Inhibitor]: GAVAGE, Species: RAT, Strain/Sex: SPRAGUE-DAWLEY/FEMALE, Target Tissue: Type of Lesion: MAMMARY GLAND: TUMOR, Dose [Carcinogen]: 12 MG IN 1 ML OLIVE OIL ONCE, Promoter: NONE): 91%, 73%, 20%, not significant
- tumour outcome (control, treated, inhibition, significance) (Carcinogen: 7,12-DIMETHYLBENZ[A]ANTHRACENE, 57-97-6, Dose [Inhibitor]: 0.1 MMOL IN 1 ML DIMETHYL SULFOXIDE ONCE 20 HR PRIOR TO CARCINOGEN ADMINISTRATION FOLLOWED BY A 14 WK OBSERVATION PERIOD, Route [Inhibitor]: GAVAGE, Species: RAT, Strain/Sex: SPRAGUE-DAWLEY/FEMALE, Target Tissue: Type of Lesion: MAMMARY GLAND: TUMOR, Dose [Carcinogen]: 12 MG IN 1 ML OLIVE OIL ONCE, Promoter: NONE USED): 60%, 50%, 17%, not significant
- tumour outcome (control, treated, inhibition, significance) (Carcinogen: BENZO[A]PYRENE, 50-32-8, Dose [Inhibitor]: 0.03 MMOL/G DIET DAILY STARTING AT 63 D OF AGE (8 D PRIOR TO START OF CARCINOGEN TREATMENT) THROUGH 98 D OF AGE FOLLOWED, Route [Inhibitor]: ORAL, Species: MOUSE, Strain/Sex: ICR/FEMALE, Target Tissue: Type of Lesion: FORESTOMACH: TUMOR, Dose [Carcinogen]: 1 MG IN 0.2 ML CORN OIL ADMINISTERED 2/WK FOR 4 WK, Promoter: NONE USED): 93%, 68%, 27%, not significant
- tumour outcome (control, treated, inhibition, significance) (Carcinogen: BENZO[A]PYRENE, 50-32-8, Dose [Inhibitor]: 0.03 MMOL/G DIET DAILY STARTING AT 63 D OF AGE (8 D PRIOR TO START OF CARCINOGEN TREATMENT) THROUGH 126 D OF AGE FOLLOWE, Route [Inhibitor]: ORAL, Species: MOUSE, Strain/Sex: ICR/FEMALE, Target Tissue: Type of Lesion: FORESTOMACH: TUMOR, Dose [Carcinogen]: 0.3 MG IN 0.2 ML CORN OIL ADMINISTERED 3/WK FOR 8 WK, Promoter: NONE USED): 100%, 44%, 56%, p<0.01

SMILES: CC(C)(O)/C=C/C(=O)[C@](C)(O)[C@H]1[C@H](O)C[C@@]2(C)[C@@H]3CC=C4[C@@H](C[C@H](O)[C@@H](O)C4(C)C)[C@]3(C)C(=O)C[C@]12C
- tumour outcome (control, treated, inhibition, significance) (Carcinogen: 7,12-DIMETHYLBENZ[A]ANTHRACENE, 57-97-6, Dose [Inhibitor]: 0, 85 NMOL IN 0.1 ML ACETONE APPLIED 1 HR PRIOR TO EACH PROMOTER DOSE 2/WK FOR 20 WK (STUDY DURATION: 21 WK), Route [Inhibitor]: DERMAL, Species: MOUSE, Strain/Sex: ICR/FEMALE, Target Tissue: Type of Lesion: SKIN: PAPILLOMA, Dose [Carcinogen]: 100 UG IN 0.1 ML ACETONE ONCE, Promoter: 12-O-TETRADECANOYLPHORBOL-13-ACETATE, 16561-29-8): 100%, 100%, 0%, not significant

SMILES: CC(C)(C)C1=CC(=O)C=C(C(C)(C)C)C1=O
- tumour outcome (control, treated, inhibition, significance) (Carcinogen: 7,12-DIMETHYLBENZ[A]ANTHRACENE, 57-97-6, Dose [Inhibitor]: 0, 200 MG/KG BW/D FOR 3 WK BEGINNING 2 WK PRIOR TO CARCINOGEN DOSE (STUDY DURATION: 24 WK), Route [Inhibitor]: INTRAPERITONEAL, Species: RAT, Strain/Sex: SPRAGUE-DAWLEY/FEMALE, Target Tissue: Type of Lesion: MAMMARY GLAND: TUMOR, Dose [Carcinogen]: 33.3 MG/KG BW IN 0.25 ML CORN OIL ONCE AT 50 D OF AGE, Promoter: NONE USED): 91%, 68%, 25%, not calculated

SMILES: CCC(=O)Oc1ccc2c(c1)CC[C@@H]1[C@@H]2CC[C@]2(C)[C@@H](OC(=O)CC)CC[C@@H]12
- tumour outcome (control, treated, inhibition, significance) (Carcinogen: 1,2-DIMETHYLHYDRAZINE, 540-73-8, Dose [Inhibitor]: 0, 0.1 ML OF A SOLUTION IN OLIVE OIL 1/WK FOR 30 WK ADMINISTERED 1 DAY PRIOR TO EACH CARCINOGEN DOSE AND CONTINUING FOR, Route [Inhibitor]: SUBCUTANEOUS, Species: MOUSE, Strain/Sex: C3H/FEMALE, Target Tissue: Type of Lesion: CLITORAL GLAND: TUMORS, Dose [Carcinogen]: 8 MG/KG BW 1/WK FOR 20 WK, Promoter: NONE USED): 23/36 (64%), 7/37 (19%), 70%, p=0.026
- tumour outcome (control, treated, inhibition, significance) (Carcinogen: 7,12-DIMETHYLBENZ[A]ANTHRACENE, 57-97-6, Dose [Inhibitor]: 0, 1 MG/100 G BW 1/WK FOR 150 D BEGINNING POST CARCINOGEN TREATMENT (STUDY DURATION: 150 D), Route [Inhibitor]: SUBCUTANEOUS, Species: RAT, Strain/Sex: WISTAR/FEMALE, Target Tissue: Type of Lesion: MAMMARY GLAND: ADENOCARCINOMA, Dose [Carcinogen]: 4 MG IN 0.1 ML OF SESAME OIL INJECTED ONCE INTO THE EXPOSED MAMMARY TISSUE OF HYPERPROLACTINEMIC RATS ON DAY 73 OF AGE, Promoter: NONE USED): 8/11 (73%), 1/7 (14%), 81%, p<0.05

SMILES: CC(C)NCC(O)c1ccc(O)c(O)c1 (stereo unspecified)
- tumour outcome (control, treated, inhibition, significance) (Carcinogen: 1,2-DIMETHYLHYDRAZINE DIHYDROCHLORIDE, 306-37-6, Dose [Inhibitor]: 0, 150 MG/KG BW 1/WK FOR 8 WK BEGINNING 20 D POST CARCINOGEN TREATMENT (STUDY DURATION: 26.5 WK), Route [Inhibitor]: INTRAPERITONEAL, Species: MOUSE, Strain/Sex: CF-1/FEMALE, Target Tissue: Type of Lesion: COLON: TUMOR, Dose [Carcinogen]: 20 MG/KG BW 1/WK FOR 8 WK, Promoter: NONE USED): 10/12 (83%), 10/12 (83%), 0%, not significant
- tumour outcome (control, treated, inhibition, significance) (Carcinogen: 1,2-DIMETHYLHYDRAZINE DIHYDROCHLORIDE, 306-37-6, Dose [Inhibitor]: 0, 150 MG/KG BW 1/WK FOR 12 WK ADMINISTERED 39 HR POST EACH CARCINOGEN DOSE (STUDY DURATION: 28 WK), Route [Inhibitor]: INTRAPERITONEAL, Species: MOUSE, Strain/Sex: CF-1/FEMALE, Target Tissue: Type of Lesion: COLON: TUMOR, Dose [Carcinogen]: 20 MG/KG BW 1/WK FOR 12 WK, Promoter: NONE USED): 12/12 (100%), 9/9 (100%), 0%, not significant
- tumour outcome (control, treated, inhibition, significance) (Carcinogen: 1,2-DIMETHYLHYDRAZINE DIHYDROCHLORIDE, 306-37-6, Dose [Inhibitor]: 0, 150 MG/KG BW 2/WK FOR 6 WK ADMINISTERED 15 AND 39 HR AFTER EACH CARCINOGEN DOSE (STUDY DURATION: 30 WK), Route [Inhibitor]: INTRAPERITONEAL, Species: MOUSE, Strain/Sex: CF-1/FEMALE, Target Tissue: Type of Lesion: COLON: TUMOR, Dose [Carcinogen]: 20 MG/KG BW 1/WK FOR 6 WK, Promoter: NONE USED): 4/9 (44%), 0/8 (0%), 100%, not calculated
- tumour outcome (control, treated, inhibition, significance) (Carcinogen: 1,2-DIMETHYLHYDRAZINE DIHYDROCHLORIDE, 306-37-6, Dose [Inhibitor]: 0, 150 MG/KG BW 2/WK FOR 12 WK ADMINISTERED 15 AND 39 HR POST EACH CARCINOGEN DOSE (STUDY DURATION: 28 WK), Route [Inhibitor]: INTRAPERITONEAL, Species: MOUSE, Strain/Sex: CF-1/FEMALE, Target Tissue: Type of Lesion: COLON: TUMOR, Dose [Carcinogen]: 20 MG/KB BW 1/WK FOR 12 WK, Promoter: NONE USED): 12/12 (100%), 8/8 (100%), 0%, not significant
- tumour outcome (control, treated, inhibition, significance) (Carcinogen: AZOXYMETHANE, 25843-45-2, Dose [Inhibitor]: 0.5 MG/KG BW 1/2D IN OLIVE OIL BEGINNING 3 WK PRIOR TO FIRST CARCINOGEN DOSE (STUDY DURATION: 40 WK), Route [Inhibitor]: SUBCUTANEOUS, Species: RAT, Strain/Sex: WISTAR/MALE, Target Tissue: Type of Lesion: COLON: TUMOR, Dose [Carcinogen]: 7.4 MG/KG BW IN 0.9% SALINE SOLUTION 1/WK FOR 10 WK, Promoter: NONE USED): 18/20 (90%), 10/18 (56%), 38%, p<0.05
- tumour outcome (control, treated, inhibition, significance) (Carcinogen: N-METHYL-N'-NITRO-N-NITROSOGUANIDINE, 70-25-7, Dose [Inhibitor]: 0, 0.1 MG/KG IN OLIVE OIL SUSPENSION 1/D BEGINNING 1 WK POST LAST CARCINOGEN DOSE AND CONTINUING FOR DURATION OF STUDY (, Species: RAT, Strain/Sex: WISTAR/MALE, Target Tissue: Type of Lesion: GLANDULAR STOMACH: ADENOCARCINOMA, Dose [Carcinogen]: 50 UG/ML IN DRINKING WATER FOR 25 WK, Promoter: NONE USED): 15/18 (83%), 9/20 (45%), 46%, p<0.05
